# Measured values: PMC10794952, “Benzothiazole DNA gyrase inhibitors and their conjugates with siderophore mimics: design, synthesis and evaluation” (RSC Advances, 2024)
# Read-outs that look alike come from different tables or passages of the source.
# Columns and labels:
# [1] = biological target: E. coli DNA gyrase (Escherichia coli, UniProt P0AES6); assay: E. coli DNA gyrase supercoiling assay; format: biochemical; settings: for IC50: supercoiling assay, average of three independent measurements
# Text: (§1) All final compounds were first tested for their inhibitory activity in the E. coli DNA gyrase supercoiling assay and the E. coli topoisomerase IV relaxation assay (Table 1). […] These observations were confirmed with compounds 18a and 18b, which carried the siderophore mimic at position 4. […] With compounds 18a and 18b, we confirmed our hypothesis that it is possible to maintain potent enzyme inhibition after introduction of the siderophore mimic into the structure of the GyrB/ParE inhibitor.
# (§2) The assays for determination of IC50 against E. coli DNA gyrase and topoisomerase IV were performed according to previously reported procedures.[23] IC50 values were determined with seven concentrations of the inhibitors. […] IC50 values were determined in three independent measurements, and their average value is given as a final result.
# [2] = biological target: T1, E. coli topoisomerase IV (Escherichia coli, UniProt P20083); assay: E. coli topoisomerase IV relaxation assay; format: biochemical; settings: average of three independent measurements
# T1 sequence (P0AFI2 whole entry): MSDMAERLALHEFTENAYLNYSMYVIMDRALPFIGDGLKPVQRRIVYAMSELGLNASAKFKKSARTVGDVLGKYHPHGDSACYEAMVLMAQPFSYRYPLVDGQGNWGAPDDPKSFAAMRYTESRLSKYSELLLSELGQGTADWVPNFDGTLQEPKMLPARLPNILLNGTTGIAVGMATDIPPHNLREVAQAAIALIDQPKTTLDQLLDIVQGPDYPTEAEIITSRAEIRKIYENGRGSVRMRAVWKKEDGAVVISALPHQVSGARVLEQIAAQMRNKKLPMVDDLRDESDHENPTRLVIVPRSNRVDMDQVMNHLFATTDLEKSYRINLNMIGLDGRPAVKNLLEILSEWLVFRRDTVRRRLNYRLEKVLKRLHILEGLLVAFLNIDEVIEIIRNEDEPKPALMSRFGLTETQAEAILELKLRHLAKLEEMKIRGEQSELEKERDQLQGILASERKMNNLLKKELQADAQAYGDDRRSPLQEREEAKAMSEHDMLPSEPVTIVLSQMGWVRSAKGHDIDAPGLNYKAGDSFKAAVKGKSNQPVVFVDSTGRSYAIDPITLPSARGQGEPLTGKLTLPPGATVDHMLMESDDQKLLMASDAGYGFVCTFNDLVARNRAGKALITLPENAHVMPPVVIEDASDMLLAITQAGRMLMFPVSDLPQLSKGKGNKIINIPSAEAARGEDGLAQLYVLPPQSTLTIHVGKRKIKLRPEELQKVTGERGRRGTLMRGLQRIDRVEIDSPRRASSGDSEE
# T1 sequence (P20083 whole entry): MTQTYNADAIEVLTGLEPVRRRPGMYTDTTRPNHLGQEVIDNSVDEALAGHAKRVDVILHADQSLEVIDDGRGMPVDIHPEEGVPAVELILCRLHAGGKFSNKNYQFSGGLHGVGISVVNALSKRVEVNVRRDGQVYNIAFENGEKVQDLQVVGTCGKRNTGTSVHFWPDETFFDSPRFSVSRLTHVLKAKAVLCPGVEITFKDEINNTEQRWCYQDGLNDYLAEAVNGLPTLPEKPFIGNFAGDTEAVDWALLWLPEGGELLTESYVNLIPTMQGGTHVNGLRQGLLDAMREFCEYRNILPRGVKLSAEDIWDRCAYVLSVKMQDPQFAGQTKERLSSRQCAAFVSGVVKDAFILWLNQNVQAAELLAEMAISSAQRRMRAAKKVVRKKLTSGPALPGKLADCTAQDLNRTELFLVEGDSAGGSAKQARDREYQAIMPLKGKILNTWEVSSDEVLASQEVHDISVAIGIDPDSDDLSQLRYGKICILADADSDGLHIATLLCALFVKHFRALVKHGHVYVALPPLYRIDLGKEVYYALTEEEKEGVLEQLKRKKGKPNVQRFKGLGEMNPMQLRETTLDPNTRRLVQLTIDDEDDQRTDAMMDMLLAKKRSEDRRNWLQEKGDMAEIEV
# Text: as §1, §2
# [3] = test system: E. coli ATCC 25922; assay: Broth microdilution MIC, E. coli ATCC 25922; format: cell-based, Escherichia coli
# Text: (§3) Cefiderocol, a siderophore cephalosporin, was used as a positive control. Compound 18a was only tested on E. coli in both media conditions. Iron-depleted conditions were used to determine the effects of the attached siderophore mimics on antibacterial activities, since bacteria under low iron conditions produce and secrete siderophores to take up iron from the extracellular environment.[32] […] We have previously observed that our benzothiazole GyrB/ParE inhibitors are strongly effluxed from the G− bacterial cells and that this effect is especially pronounced in E. coli.[14] Therefore, compounds 10, 12, and 18b were also tested against E. coli JW5503, which is a tolC deletion mutant strain with a defective efflux pump.
# (§4) The single-gene knock-out mutant strain of E. coli JW5503 (tolC knock-out) was obtained from the E. coli collection of the National BioResource Project at the National Institute of Genetics (Japan).[45] To determine the antibacterial activities, broth microdilution assays were carried out in 96-well plates following the Clinical and Laboratory Standards Institute guidelines.[46] Compounds were prepared as 100% DMSO stock solutions. The final concentration of DMSO was 1% and had no effect on the growth of bacteria. Preliminary screening was performed at 50 μM, and growth inhibition was measured after 24 h incubation at 37 °C. For compounds displaying >90% growth inhibition in the preliminary assay, MIC values were determined in dose–response assays (from at least two independent experiments, each with three replicates per concentration). Cation-adjusted Mueller-Hinton broth (CAMHB, BD) was used in all assays. CAMHB was prepared according to manufacturer's instructions and iron-depleted CAMHB (ID-CAMHB) according to CLSI guidelines. ID-CAMHB was used in order to mimic the conditions faced by bacteria during human infections, and induces the ferric iron transport. ID-CAMHB was prepared by adding 100 g of Chelex 100 resin (Bio-Rad) to 1 L of autoclaved CAMHB and stirred for 2 h at room temperature, in order to remove cations from the medium. Then, broth was filtered using a 0.2 μm filter to remove the resin and pH adjusted to 7.3 using 5 M hydrochloric acid. ID-CAMHB was then supplemented with calcium (CaCl2), magnesium (MgCl2) and zinc (ZnSO4) to final concentrations of 22.5 μg mL^−1, 11.25 μg mL^−1 and 0.56 μg mL^−1, respectively, and filtered again. To evaluate the effect of iron concentration on antibacterial effect of compounds, an appropriate amount of iron(III) chloride was added to ID-CAMHB, and this supplemented media was used as control CAMHB. The iron concentration in CAMHB and ID-CAMHB were approximately 0.2 mg L^−1 and ≤0.03 mg L^−1, respectively. Cefiderocol, a positive control, MICs were determined against E. coli, P. aeruginosa and A. baumannii, and used as positive control in the assays. Cefiderocol was purchased from MedChemExpress Europe.
# [4] = test system: P. aeruginosa ATCC 27853; assay: Broth microdilution MIC, P. aeruginosa ATCC 27853; format: cell-based; settings: Pseudomonas aeruginosa, ATCC27853, P. aeruginosa ATCC 27853, read-out: Minimum inhibitory concentrations
# Text: as §3, §4
# [5] = test system: A. baumannii ATCC 19606; assay: Broth microdilution MIC, A. baumannii ATCC 19606; format: cell-based; settings: Acinetobacter baumannii, ATCC19606, A. baumannii ATCC 19606, read-out: Minimum inhibitory concentrations
# Text: as §3, §4
# [6] = test system: E. coli JW5503; assay: Broth microdilution MIC, efflux-defective E. coli JW5503 (tolC deletion mutant); format: cell-based, Escherichia coli; settings: for MIC: Escherichia coli; for improvement of antibacterial activity in iron-depleted medium: iron-depleted vs iron-supplemented medium, E. coli JW5503
# Text: as §3, §4
# [7] = test system: wild type G− E. coli, P. aeruginosa and A. baumannii; assay: Antibacterial activity against wild type G− bacteria (screen at 50 μM); format: cell-based
# Text: as §3
# as §4, with “The iron concentration in CAMHB and ID-CAMHB were approximately 0.2 mg L^−1 and ≤0.03 mg L^−1, respectively.” left out, “Cefiderocol was purchased from MedChemExpress Europe.” left out
# [8] = biological target: T1, E. coli topoisomerase IV; parameters: method as in PMID 33017402, PMID 33524686, PMID 36634346, PMID 36877255; settings: parent inhibitors; cited from earlier work
# [9] = E. coli ATCC 25922, +Fe: CAMHB + Fe, read-out: Minimum inhibitory concentrations
# [10] = Escherichia coli, ATCC25922, read-out: Minimum inhibitory concentrations
# [11] = JW5503, read-out: Minimum inhibitory concentrations, E. coli JW5503, +Fe: CAMHB + Fe
# [12] = JW5503, read-out: Minimum inhibitory concentrations, E. coli JW5503, −Fe: ID-CAMHB
Structure (SMILES),IC50 E. coli DNA gyrase (range in words) [1],IC50 [1] [nM],IC50 [2] [nM],"MIC [3, 9] [µM]","MIC [3, 10] [µM]",MIC ([4]; +Fe: CAMHB + Fe) [µM],MIC ([4]; −Fe: ID-CAMHB) [µM],MIC ([5]; +Fe: CAMHB + Fe) [µM],MIC ([5]; −Fe: ID-CAMHB) [µM],"MIC ([6]; JW5503, E. coli JW5503, iron-depleted conditions) [µg/mL]","MIC ([6]; JW5503, E. coli JW5503, iron-supplemented conditions) [µg/mL]","MIC [6, 11] [µM]","MIC [6, 12] [µM]",improvement of antibacterial activity in iron-depleted medium [6],MIC [7] [µM],melting point [°C],"MIC ([3]; Escherichia coli, ATCC25922, E. coli ATCC 25922, −Fe: iron depleted CAMHB (ID-CAMHB), read-out: Minimum inhibitory concentrations) [µM]","MIC ([7]; iron-supplemented and iron-depleted media, indicated by weak activity at 50 μM, read-out: MIC) [µM]",IC50 [8] [nM]
"Cc1[nH]c(C(=O)Nc2nc3c(OCc4cc(=O)c(O)c[nH]4)cc(C(=O)O)cc3s2)c(Cl)c1Cl [Compound 18b, 2-(3,4-Dichloro-5-methyl-1H-pyrrole-2-carboxamido)-4-((5-hydroxy-4-oxo-1,4-dihydropyridin-2-yl)methoxy)benzo[d]thiazole-6-carboxylic acid]",low nanomolar range,22 ± 6,430 ± 20,>50,> 50,> 50,> 50,> 50,> 50,6.37,12.7,25,12.5,twofold,> 50,> 300,–,–,–
"O=C(O)c1cc(OCc2cc(=O)c(O)c[nH]2)c2nc(NC(=O)c3cc(Br)c(Br)[nH]3)sc2c1 [Compound 18a, 2-(4,5-Dibromo-1H-pyrrole-2-carboxamido)-4-((5-hydroxy-4-oxo-1,4-dihydropyridin-2-yl)methoxy)benzo[d]thiazole-6-carboxylic acid]",low nanomolar range,12 ± 5,1280 ± 820,>50,–,–,–,–,–,–,–,–,–,–,–,–,> 50,> 50,–
Cc1[nH]c(C(=O)Nc2nc3ccc(C(=O)O)cc3s2)c(Cl)c1Cl [A],–,–,–,–,–,–,–,–,–,–,–,–,–,–,–,–,–,–,500 ± 280
"O=C(NCc1cc(=O)c(O)co1)c1ccc2nc(NC(=O)c3cc(Br)c(Br)[nH]3)sc2c1 [Compound 10, 2-(4,5-Dibromo-1H-pyrrole-2-carboxamido)-N-((5-hydroxy-4-oxo-4H-pyran-2-yl)methyl)benzo[d]thiazole-6-carboxamide]",low micromolar range,1420 ± 180,> 10000,>50,> 50,> 50,> 50,> 50,> 50,–,–,> 50,> 50,–,> 50,> 300,–,–,–
"O=C(NCc1cc(=O)c(O)c[nH]1)c1ccc2nc(NC(=O)c3cc(Br)c(Br)[nH]3)sc2c1 [Compound 12, 2-(4,5-Dibromo-1H-pyrrole-2-carboxamido)-N-((5-hydroxy-4-oxo-1,4-dihydropyridin-2-yl)methyl)benzo[d]thiazole-6-carboxamide]",low micromolar range,1700 ± 360,> 10000,>50,> 50,> 50,> 50,> 50,> 50,–,–,> 50,> 50,–,> 50,> 300,–,–,–
"CC(C)(O/N=C(\C(=O)N[C@@H]1C(=O)N2C(C(=O)[O-])=C(C[N+]3(CCNC(=O)c4ccc(O)c(O)c4Cl)CCCC3)CS[C@H]12)c1csc(N)n1)C(=O)O [Cefiderocol, reference compound]",–,–,–,0.25,0.25,1,0.25,2,0.25,–,–,0.125,0.0625,twofold,–,–,–,–,–
